From patent US11324219B2, “Amide compound or salt thereof, agricultural and horticultural microbicide comprising the compound and the salt, and method for using the agricultural and horticultural microbicide” (Nihon Nohyaku Co., Ltd., priority 2018, dated 2022)

melting point: 160 to 162 °C
Structure (SMILES): CCS(=O)(=O)c1cc(C(F)(F)F)ccc1C(=O)Nc1oc(C(F)(F)F)cc1Br [Compound 1-23, N-[3-bromo-5-(trifluoromethyl)furan-2-yl]-2-(ethylsulfonyl)-4-(trifluoromethyl)benzamide]
